Patent US5015647A, “Method for treating viral infections” (Burroughs Wellcome Co., priority 1989, dated 1991)

Columns and labels:
[1] = target: T1, adenosine (purine) receptors (Cavia porcellus, UniProt P47745); assay: guinea pig ileum twitch test, antagonism of purine receptors (agonist 2-chloroadenosine); settings: slope in parentheses after pA2
T1 construct: Ilea were removed from sacrificed guinea pigs and placed in organ baths; from tissue; host or cells: guinea pig ileum
T1 sequence (P47745 1-326): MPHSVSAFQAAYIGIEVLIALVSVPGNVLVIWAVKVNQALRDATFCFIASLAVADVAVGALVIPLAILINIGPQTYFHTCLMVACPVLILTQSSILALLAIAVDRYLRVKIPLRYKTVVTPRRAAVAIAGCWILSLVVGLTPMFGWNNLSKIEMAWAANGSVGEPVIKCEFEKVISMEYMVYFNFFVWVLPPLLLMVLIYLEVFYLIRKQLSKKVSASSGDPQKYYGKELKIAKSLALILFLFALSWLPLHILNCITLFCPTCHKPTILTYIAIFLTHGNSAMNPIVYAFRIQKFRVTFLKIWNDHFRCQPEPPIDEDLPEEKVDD
Experimental: Accordingly, a representative number of compounds of the present invention were tested for their ability to antagonise the purine receptors using the guinea pig ileum test system.
Ilea were removed from sacrificed guinea pigs and placed in organ baths containing oxygenated Krebs-Henseleit buffer. After equilibration, the ilea were stimulated to contract (twitch contraction) using an electrical field-stimulus of 0.1 Hz, 0.5 ms duration and maximal voltage. Under these conditions, the twitch contraction results from the release of acetylcholine.
Concentration response curves to the purine agonist, 2-chloroadenosine, were determined first in the absence and then in the presence of multiple concentrations of the compounds of the invention. One concentration of each compound was used per tissue. Quantification of purine receptor antagonism was accomplished using the Schild regression technique, i.e. plots of log (dose-ratio-1) vs log compound concentration, and the pA2 determined by regression of the data points to the x-intercept, where log (dose-ratio-1) is zero.

HIV = assay: anti-HIV activity, in-vitro assay system; format: cell-based; set-up: key to ED50 (expressed as active (+) or very active (++)): +: active; ++: very active; settings: for EC50: Human immunodeficiency virus 1, 50% effective dose estimated, read-out: μM ED50; for EC50 / ED50 (expressed as active (+) or very active (++)): in vitro anti-HIV; for ED50 (expressed as active (+) or very active (++)): grade
Experimental: The anti-HIV activity of various compounds was tested using an in-vitro assay system as described in H Mitsuya et al; (Proc Natl. Acad.Sci. USA Vol 82 pp 7096-7100, October 1985)

Row | Compound | slope (Schild regression) [1] | EC50 (HIV) | antiviral / anti-retroviral activity, in words (HIV; against AIDV / retroviruses, statement in words, listed as compound 14) | ED50 (expressed as active (+) or very active (++)) (HIV)
1 | O=C(O)/C=C/c1ccc(-c2nc3c(=O)n(Cc4ccccc4)c(=O)n(Cc4ccccc4)c3[nH]2)cc1 [Example 15, (E)-4-(1,3-dibenzyl-1,2,3,6-tetrahydro-2,6-dioxo-9H-purin-8yl) cinnamic acid] | 0.9 | 3 to 15 µM | especially potent activity against AIDV | ++
2 | CCCn1c(=O)n(Cc2ccccc2)c(=O)c2nc(-c3ccc(/C=C/C(=O)O)cc3)[nH]c21 [Example 25, (E)-4-(1-Benzyl-1,2,3,6-tetrahydro-2,6-dioxo-3-propyl-9H-purin-8-yl)cinnamic acid] | – | 30 µM | – | +
3 | Cn1c(=O)c2[nH]cnc2n(C)c1=O [THEOPHYLLINE, 1,3-dimethylxanthine, reference compound] | 1.1 | – | – | –
4 | Cn1c(=O)c2nc(-c3ccc(/C=C/C(=O)O)cc3)[nH]c2n(Cc2ccccc2)c1=O [Example 18, (E)-4-(3-benzyl-1,2,3,6-tetrahydro-1-methyl-2,6-dioxo-9H-purin-8yl) cinnamic acid] | 0.9 | – | – | –

Second part, led by results:

Row | slope (Schild regression) [1] | EC50 (HIV) | Compound | antiviral / anti-retroviral activity, in words (HIV; against AIDV / retroviruses, statement in words, listed as compound 14) | ED50 (expressed as active (+) or very active (++)) (HIV)
5 | 1.0 | – | CC(C)Cn1c(=O)c2nc(-c3ccc(/C=C/C(=O)O)cc3)[nH]c2n(CC(C)C)c1=O [Example 19, (E)-4-(1,2,3,6-tetrahydro-1,3-diisobutyl-2,6-dioxo-9H-purin-8-yl)cinnamic acid] | – | –
6 | 0.9 | – | CCCn1c(=O)c2nc(-c3ccc(/C=C/C(=O)O)cc3)[nH]c2n(CCC)c1=O [Example 6, (E)-4-(1,2,3,6-tetrahydro-2,6-dioxo-1,3-dipropyl-9H-purin-8-yl)cinnamic acid] | – | –
7 | 1.0 | – | CCCn1c(=O)n(C)c(=O)c2nc(-c3ccc(/C=C/C(=O)O)cc3)[nH]c21 [Example 11, (E)-4-(1,2,3,6-tetrahydro-1-methyl-2,6-dioxo-3-propyl-9H-purin-8-yl)cinnamic acid] | – | –
8 | – | 30 µM | CCCn1c(=O)c2nc(-c3ccc(/C=C/C(=O)O)cc3)[nH]c2n(Cc2ccccc2)c1=O [Example 26, (E)-4-(3-Benzyl-1,2,3,6-tetrahydro-2,6dioxo-1-propyl-9H-purin-8-yl)cinnamicacid] | – | +
9 | 1.0 | 30 µM | CCCCn1c(=O)c2nc(-c3ccc(/C=C/C(=O)O)cc3)[nH]c2n(CCCC)c1=O [Example 14, (E)-4-(1,3-dibutyl-1,2,3,6-tetrahydro-2,6-dioxo-9H-purin-8-yl)cinnamic acid] | – | +
